“Also recorded” adds a separate entry of the source.
Legend:
hypothalamic proteins = experiment: Hypothalamic proteins after subcutaneous injection of new-born rats for 14 days; type: in vivo, rat; conditions: hypothalamus, s.c. for 14 days
Method: Tables 3 and 4 represent data from a neonatal study, where the two MSH peptides were injected subcutaneously into new-born rats for 14 days, and the changes in hypothalamic proteins assessed with the same method as the above study.
Adult female Wistar rats were housed in plastic cages and kept on a 12-h dark/light cycle. Animals received tap water and rat pellets ad libitum and were mated with males of the same strain. Each litter of new-born Wistar rats was culled to 9 pups per mother.
PBS or freshly prepared peptide solutions made up freshly in PBS containing 0.1% BSA were injected subcutaneously once per day in a volume of 40 μl for 14 days. Animals were injected on day 14 and 1 h later they were euthanised using sodium pentobarbital.

primary rat osteoblasts = experiment: Primary rat osteoblast proliferation assay ([3H]thymidine incorporation, cell number); type: cell-based
Description: Primary rat osteoblasts were isolated from 20 day fetal rat calvariae. (The use of animals for these studies was approved by the Auckland Animal Ethics Committee.) Calvariae were excised and the frontal and parietal bones, free of suture and periosteal tissue, were collected and sequentially digested using collagenase as previously described (Cornish J, Callon K E, Lin C Q X, Xiao C L, Mulvey T B, Cooper G J S, Reid I R Trifluoroacetate, a contaminant in puritied proteins, inhibits proliferation of osteoblasts and chondrocytes. Amer J Physiol Endocrinol Metab 277: E779-E783, 1999). Primary rat osteoblasts were grown in DMEM supplemented with 10% FCS, 50 U/ml penicillin and 50 μg/ml streptomycin. After 48 hour, the medium was changed to MEM. Confluence was reached within 5-6 days, at which time the cells were subcultured into 10 cm culture plates for RNA preparation or 24 well plates for proliferation assays.
Primary rat osteoblasts were subcultured into 24 well plates at a density of 5×10^4 cells/ml/well in MEM, 5% FCS for 24 hours. Cells were growth arrested in MEM, 0.1% bovine serum albumin (BSA) for 24 hour and then fresh media and experimental compounds were added for a further 24 hours. Cells were pulsed with [^3H]thymidine (0.5 μCi/well) 2 hours before the end of the experimental incubation. The experiment was terminated and both cell numbers and thymidine incorporation were assessed. Cell numbers were analysed by detaching cells from the wells by exposure to trypsin/EDTA (0.05%/0.53 mM) for approximately 5 minutes at 37° C. Counting was performed in a hemocytometer chamber. Results are expressed per well. [^3H]Thymidine incorporation was analysed by washing the cells in MEM followed by the addition of 10% trichloroacetic acid. The precipitate was washed twice with ethnol:ether (3:1) and the wells desiccated at room temperature. The residue was dissolved in 2M KOH at 55° C. for 30 minutes, neutralized with 1M HCl, and an aliquot counted for radioactivity. Results are expressed as dpm per well. Each experiment was performed at least three times using experimental groups consisting of at least six wells.
Data are presented as mean±SEM. The significance of differences between groups was determined using Student's t tests for unpaired data and a 5% significance level. The comparisons to be made in each experiment were specified a priori, so no adjustment for multiple comparisons was necessary. Where several experiments have been shown in one figure, the data are expressed as the ratio of results in treatment groups to those in the control group and the ‘P’ values shown were calculated using the data from the individual experiments, before the data were pooled.

3T3 L1 adipocytes = experiment: Leptin production in differentiated 3T3 L1 adipocytes (peptide stimulation assay); type: cell-based, murine; conditions: for mean leptin level: one assay; for Leptin Response, Mean: 4 hours, 2 assays combined
Method: • 2.1 The objective of this study was to determine the effects of a-MSH and desacetyl a-MSH on leptin and triglyceride production in murine 3T3 L1 adipocytes. • 2.2 Pre-adipocytes were seeded in 6-well plates and 2 days post confluence (Day 2) were differentiated with […] indomethacin+5 ug/mL insulin (described in previous documents). • 2.3 On Day 13 adipocytes were stimulated with 4 doses each of a-MSH and desacetyl a-MSH (or no peptide added) for 4 hours. • 2.4 Medium was removed from the wells and leptin and triglyceride levels measured. • 2.5 Intracytoplasmic lipid accumulation was measured by staining with Oil red O.
• 4.1 Medium=a-MEM+0.5% BSA (100 mL a-MEM+0.5 g BSA) • 4.2 Doses of a-MSH and da-MSH (stocks in −80° C. freezer=1 ug/ul), using MW of a-MSH. • 1 M=1665 g/L=1665 mg/mL • 1 mM=1.665 mg/mL • 1 uM=1.665 ug/mL • 1.665 ug/mL=3.3 ug/2 mL in each well • 1/10 dilution of 1 ug/ul (stock)=0.1 ug/ul. 33 ul=3.3 ug. • Prepare 1/10 dilution of freezer stock (1 ug/ul) to make 0.1 ug/ul, using a-MEM+0.5% BSA as diluent. • Make 3 serial dilutions of 1/10 to add 33 ul to each well in 6-well plate. • Doses are in triplicate wells, so require 3×33=99 ul for each dose.
• 5.1 Assay is performed on Day 14 after initiation of cell differentiation. On day prior to stimulation assay, replace growth medium+insulin with medium prepared in 4.1 (a-MEM+0.5% BSA) and return plates to incubator. • 5.2 On Day of assay prepare peptide solutions as in 4.2 and IBMX as in 4.3. • 5.3 Replace medium with the same medium supplemented with 1 mM IBMX (as in 4.3) and allow cells to equilibrate in incubator for 10 minutes. • 5.4 Add increasing concentrations of peptides (or none), 33 ul per well, swirl gently to mix, and place plates in incubator for 4 hours. • 5.5 At the end of the incubation remove media from wells and store triplicate aliquots in −20° C. freezer for measurement of leptin and triglycerides. • 5.6 Stain adipocytes in wells with Oil Red O as in “Oil Red O Staining of Adipocyte” document. • 5.7 After eluting the stain, remove cells from wells as in 6.0 for measuring total protein.
Leptin Assays Quantikine M kit (R & D Systems Inc, UK # MOB00 Abingdon, Oxon) and DSL kit (DSL #10-24100, Australia PTY Ltd, NSW, Australia) were used. […] The Quantikine M kit is preferred as it is more sensitive and precise.

creatine kinase brain (p1079), level compared to control (hypothalamic proteins): 1.9 fold increase
creatine kinase brain (p1251), level compared to control (hypothalamic proteins): 2.1 fold increase
dihydropyrimidinase-like 2 (p537), level compared to control (hypothalamic proteins): 2.5 fold decrease
protein kinase C inhibitor (p1790), level compared to control (hypothalamic proteins): 1.8 fold increase
similar to phosphoglycerate kinase (p1363), level compared to control (hypothalamic proteins): 1.6 fold increase
triosephosphate isomerase (p1339), level compared to control (hypothalamic proteins): 2.1 fold increase
Sequence: SYSMEHFRWGKPV [desacetyl-α-MSH, non-acetylated form of α-MSH, obtained from Bachem]
ATP synthase, H+ transporting (p1379), level compared to control (hypothalamic proteins): 1.7 fold decrease
RIKEN cDNA0610011D08 (p1381), level compared to control (hypothalamic proteins): 3.3 fold increase
cofilin (p1854), level compared to control (hypothalamic proteins): 1.9 fold increase
heat shock protein (p1445), level compared to control (hypothalamic proteins): 2.0 fold increase
hypothetical protein XP_112457 (p1936), level compared to control (hypothalamic proteins): 2.2 fold increase
prohibitin homologue (p1458), level compared to control (hypothalamic proteins): 1.7 fold increase
similar to SH3-containing protein SH3GLB2 (p1557), level compared to control (hypothalamic proteins): 4.0 fold increase
spectrin fragment (p1362), level compared to control (hypothalamic proteins): 2.5 fold decrease
stathmin (p1610), level compared to control (hypothalamic proteins): 2.6 fold increase
stathmin P*Ser38 (p1588), level compared to control (hypothalamic proteins): 1.7 fold increase
tubulin beta (p1520), level compared to control (hypothalamic proteins): 1.6 fold increase
antagonism of α-MSH stimulated [3H] thymidine uptake (primary rat osteoblasts; 10^−7 M against α-MSH 10^−8 M and 10^−7 M, growth arrested primary rat osteoblasts): inhibited two doses of α-MSH (10^−8 M and 10^−7 M) from stimulating [^3H] thymidine uptake; also recorded: antagonise α-MSH stimulated stimulation of thymidine incorporation
osteoblast proliferation (primary rat osteoblasts; 10^−7 M and 10^−8 M, alone): no significant effect on osteoblast proliferation in two out of three experiments
thymidine incorporation or cell numbers (proliferation) (primary rat osteoblasts; growth arrested primary rat osteoblasts, 10^−7 M, alone): did not stimulate thymidine incorporation or cells numbers
effect on leptin production (3T3 L1 adipocytes; 1 nM single peptide): appears to reduce leptin production
mean leptin level (3T3 L1 adipocytes; 1 nM single peptide): 480.4 pg/mL
Leptin Response, Mean (3T3 L1 adipocytes; 1 nM): 95.4 % of control
Leptin Response, Mean (3T3 L1 adipocytes; 10 nM): 96.3 % of control
mean leptin level (3T3 L1 adipocytes; 100 nM single peptide): 528.0 pg/mL
Leptin Response, Mean (3T3 L1 adipocytes; 100 nM): 97.7 % of control
Leptin Response, Mean (3T3 L1 adipocytes; 1000 nM): 109.4 % of control
